Source: ChEMBL document CHEMBL4359842 (J Med Chem, 2019)
The source made the active and inactive calls. The rule behind the calls is not given here.

How the values were obtained:
[1] = target: Mitogen-activated protein kinase 10 (Homo sapiens, UniProt P53779); assay: Inhibition of recombinant human full-length JNK3 using ATF2 as substrate measured after 40 mins in presence of [gamma33P]ATP by scintillation counting analysis
[2] = Toxicity in APPswe/PS1dE9 double mutant-transgenic mouse assessed as change in body weight at 15 to 30 mg/kg, ip administered once daily for 12 weeks and measured every week during compound dosing; assay type: organism-based; conditions: in vivo, 2016 h
Mus musculus [3] = assay: Improvement in spatial memory impairment in ip dosed APPswe/PS1dE9 double mutant-transgenic mouse model assessed as decrease in number of diffused plaque in cortex administered once daily for 12 weeks measured post-last dose by thioflavin S staining-based fluorescence microscopic analysis; assay type: functional, organism-based
Mus musculus [4] = assay: (§1) Improvement in spatial memory impairment in ip dosed APPswe/PS1dE9 double mutant-transgenic mouse model assessed as decrease in area occupied by diffused plaque in cortex administered once daily for 12 weeks measured post-last dose by thioflavin S staining-based fluorescence microscopic analysis; assay type: functional, organism-based
Mus musculus [5] = assay: Improvement in spatial memory impairment in ip dosed APPswe/PS1dE9 double mutant-transgenic mouse model assessed as decrease in number of fibrillar plaque in hippocampus administered once daily for 12 weeks measured post-last dose by thioflavin S staining-based fluorescence microscopic analysis; assay type: functional, organism-based
Mus musculus [6] = assay: as §1, with “hippocampus” for “cortex”; assay type: functional, organism-based
Mus musculus [7] = assay: In vivo inhibition of […] phosphorylation in cortex of APPswe/PS1dE9 double mutant-transgenic mouse model at 30 mg/kg, ip administered once daily for 12 weeks measured post-last dose by Western blot analysis; assay type: functional, organism-based
Mus musculus [8] = assay: In vivo inhibition of JNK in APPswe/PS1dE9 double mutant-transgenic mouse model assessed as reduction in Tau phosphorylation at Ser235 residue in cortex at 30 mg/kg, ip administered once daily for 12 weeks measured post-last dose by Western blot analysis; assay type: functional, organism-based
Mus musculus [9] = assay: In vivo inhibition of JNK in APPswe/PS1dE9 double mutant-transgenic mouse model assessed as reduction in Tau phosphorylation at Thr205 residue in cortex at 30 mg/kg, ip administered once daily for 12 weeks measured post-last dose by Western blot analysis; assay type: functional, organism-based
Mus musculus [10] = assay: In vivo inhibition of JNK in APPswe/PS1dE9 double mutant-transgenic mouse model assessed as reduction in Tau phosphorylation at Thr205 residue in hippocampus at 30 mg/kg, ip administered once daily for 12 weeks measured post-last dose by Western blot analysis; assay type: functional, organism-based
[11] = Primary phase half life in APPswe/PS1dE9 double mutant-transgenic mouse at 3 mg/kg, iv administered as single dose by LC-MS/MS analysis; assay type: ADME, organism-based; conditions: in vivo, read-out: alphat1/2 (converted)
[12] = Terminal half life in APPswe/PS1dE9 double mutant-transgenic mouse at 3 mg/kg, iv administered as single dose by LC-MS/MS analysis; assay type: ADME, organism-based; conditions: in vivo, read-out: beta t1/2 (converted)
[13] = Cmax in APPswe/PS1dE9 double mutant-transgenic mouse at 3 mg/kg, iv administered as single dose by LC-MS/MS analysis; assay type: ADME, organism-based; parameters: dose 3 mg/kg, route intravenous; conditions: in vivo
[14] = AUC in APPswe/PS1dE9 double mutant-transgenic mouse at 3 mg/kg, iv administered as single dose by LC-MS/MS analysis; assay type: ADME, organism-based; conditions: in vivo
[15] = Clearance in APPswe/PS1dE9 double mutant-transgenic mouse at 3 mg/kg, iv administered as single dose by LC-MS/MS analysis; assay type: ADME, organism-based; conditions: in vivo
[16] = Primary phase half life in APPswe/PS1dE9 double mutant-transgenic mouse at 30 mg/kg, ip administered as single dose by LC-MS/MS analysis; assay type: ADME, organism-based; conditions: in vivo, read-out: alphat1/2 (converted)
[17] = Terminal half life in APPswe/PS1dE9 double mutant-transgenic mouse at 30 mg/kg, ip administered as single dose by LC-MS/MS analysis; assay type: ADME, organism-based; conditions: in vivo, read-out: beta t1/2 (converted)
[18] = AUC in APPswe/PS1dE9 double mutant-transgenic mouse at 30 mg/kg, ip administered as single dose by LC-MS/MS analysis; assay type: ADME, organism-based; conditions: in vivo
[19] = Mean residence time in APPswe/PS1dE9 double mutant-transgenic mouse at 30 mg/kg, ip administered as single dose by LC-MS/MS analysis; assay type: ADME, organism-based; conditions: in vivo
[20] = Bioavailability in APPswe/PS1dE9 double mutant-transgenic mouse at 30 mg/kg, ip administered as single dose by LC-MS/MS analysis; assay type: ADME, organism-based; conditions: in vivo
[21] = Plasma concentration in APPswe/PS1dE9 double mutant-transgenic mouse at 30 mg/kg, ip administered as single dose measured after 24 hrs by LC-MS/MS analysis; assay type: ADME, organism-based
[22] = Drug level in APPswe/PS1dE9 double mutant-transgenic mouse brain at 30 mg/kg, ip administered as single dose measured after 0.5 hrs by LC-MS/MS analysis; assay type: ADME, organism-based; conditions: read-out: Drug uptake
[23] = Ratio of drug level in APPswe/PS1dE9 double mutant-transgenic mouse brain to plasma at 30 mg/kg, ip administered as single dose measured after 2 hrs by LC-MS/MS analysis; assay type: ADME, organism-based; conditions: read-out: BPR
[24] = Ratio of drug level in APPswe/PS1dE9 double mutant-transgenic mouse brain to plasma at 30 mg/kg, ip administered as single dose measured after 8 hrs by LC-MS/MS analysis; assay type: ADME, organism-based; conditions: read-out: BPR
Mus musculus [25] = organism: Mus musculus; conditions: 15 to 30 mg/kg
Description: In vivo inhibition of JNK in APPswe/PS1dE9 double mutant-transgenic mouse model assessed as increase in transformation of sAPPbeta to sAPPalpha by measuring reduction in sAPPbeta level at 15 to 30 mg/kg, ip administered once daily for 12 weeks measured post-last dose by Western blot analysis

Mitogen-activated protein kinase 10, sequence (P53779 whole entry): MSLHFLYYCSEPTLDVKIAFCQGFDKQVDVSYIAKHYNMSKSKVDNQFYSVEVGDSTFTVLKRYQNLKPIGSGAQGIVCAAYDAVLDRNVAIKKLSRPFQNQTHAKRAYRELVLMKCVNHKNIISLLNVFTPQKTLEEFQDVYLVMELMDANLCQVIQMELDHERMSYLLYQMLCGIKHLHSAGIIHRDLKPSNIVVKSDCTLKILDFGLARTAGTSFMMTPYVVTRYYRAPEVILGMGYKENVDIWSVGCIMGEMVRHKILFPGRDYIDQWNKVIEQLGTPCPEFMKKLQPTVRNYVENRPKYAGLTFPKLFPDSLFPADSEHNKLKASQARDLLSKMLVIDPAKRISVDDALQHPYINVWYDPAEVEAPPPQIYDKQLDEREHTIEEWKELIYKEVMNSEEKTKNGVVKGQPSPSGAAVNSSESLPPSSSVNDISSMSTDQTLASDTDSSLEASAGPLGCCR

## O=C1N/C(=N/c2ccccc2Cl)S/C1=C1\C(=O)Nc2ccc(F)cc21
[1]
  IC50: 40 nM
[2]
  Activity: Non-Toxic
Mus musculus [3]
  Activity: Dose-dependent effect
Mus musculus [4]
  Activity: Dose-dependent effect
Mus musculus [5]
  Activity: Dose-dependent effect
Mus musculus [6]
  Activity: Dose-dependent effect
Mus musculus [7]
  inhibition: Active
Mus musculus [8]
  inhibition: Active
Mus musculus [9]
  inhibition: Active
Mus musculus [10]
  inhibition: Active
[11]
  half-life: 0.35 h
[12]
  half-life: 8.83 h
[13]
  Cmax: 4550 ng/mL
[14]
  AUC: 2120 ng·h/mL
[15]
  clearance: 24.2 mL/min/kg
[16]
  half-life: 0.34 h
[17]
  half-life: 16.1 h
[18]
  AUC: 19200 ng·h/mL
[19]
  MRT: 2.78 h
[20]
  bioavailability: 90.5%
[21]
  concentration at 24 h: 41 ng/mL
[22]
  concentration at 0.5 h: 51.4 ng/g
[23]
  Kp at 2 h: 0.135
[24]
  Kp at 8 h: 0.4
Mus musculus [25]
  inhibition: Active
